Reference: patent US20250282895A1, “PHARMACEUTICAL COMPOSITIONS OF CHEMOTHERAPEUTIC AGENTS BASED ON BETA-S[…]-AMINO ACID DERIVATIVES” (priority 2021, published 2025)
Structures can show the parent of a compound that is named as a salt.

Experiment: Stability (impurities) of Compound (1c):SBE6.5-β-CD formulations at different pH values
Type: physicochemical
Conditions: listed as Compound (1c) HCl salt, mono hydrochloride salt
Protocol: The stability of Compound (1c) in formulations containing a Compound (1c): SBE6.5-β-CD guest-host inclusion complex at different pH was determined by analytical HPLC/UV. The mass ratio of Compound (1c) to SBE6.5-β-CD was either 1:54 or 1:50.
To prepare the formulations, SBE6.5-β-CD was dissolved in water for injection (WFI) by continuous stirring until a clear solution was obtained. The solution was acidified by addition of 1 N HCl. Compound (1c) was dissolved in the acidified aqueous SBE6.5-β-CD solution and water was added at Q.S. to the final volume to prepare a solution with a nominal concentration of 5.0 mg/mL of Compound (1c). The pH was adjusted with 1 N HCl to the values shown in Table 7 which corresponded to the pH of the final formulation after reconstitution with 0.9% saline. The solution was filtered through a 0.22 μm syringe filter followed by lyophilization to dryness affording a colorless powdery solid. The freeze-dried lyophilizate was reconstituted with 0.9% saline to the nominal target concentration of 5.0 mg/mL of Compound (1c). […]
Analytical HPLC/UV was performed on a HPLC chromatograph equipped with a UV detector, a Waters Xbridge® C18 column (4.6× 150 mm; 5 μm) operated at 30° C. and a personal computer for data computation. Gradients of 0.01 M potassium dihydrogen phosphate solution (KH2PO4) solution adjusted to pH to 3.0 with phosphoric acid (H3PO4): acetonitrile=850:150 (v/v) (solvent A) and acetonitrile (MeCN; solvent B) were used in the analytical HPLC/UV analyses. The needle wash was performed with 50% aqueous acetonitrile. Prior to injection into the HPLC/UV system (10 μL injection volume), samples were diluted to a nominal concentration of 0.5 mg/mL of Compound (1c) with a 0.9 M sodium chloride (NaCl) and 0.1 N hydrochloric acid (HCl) diluent. The diluent solution was prepared from 5.26 g (90.0 mmol) of sodium chloride and 850 μL of concentrated hydrochloric acid (HCl) (36-38 wt-%, d 1.184, 1.00 g, 10.2 mmol) diluted to 100 mL solution.
The HPLC/UV method used employed a gradient from 10 vol-% of solvent B to 100 vol-% of solvent B with a 36 min runtime at a flow rate of 1.5 mL/min and UV detection at 2=220 nm.

[1] = Compound (1c):SBE6.5-β-CD 1:54, pH 4.1, 0 h, 5.0 mg/mL in 0.9% saline
[2] = Compound (1c):SBE6.5-β-CD 1:54, pH 4.1, Cake

Cc1ccc(N(CCCl)CCCl)cc1C[C@H](N)CC(=O)O [Compound (1c)•HCl, (S)-3-amino-4-(5-(bis(2-chloroethyl)amino)-2-methylphenyl) butanoic acid mono hydrochloride salt]
Impurity (% AUC) RRT 0.36 [1]: 1.51 % AUC | Impurity (% AUC) RRT 1.31 [1]: 0.18 % AUC | Impurity (% AUC) Total [1]: 2.2 % AUC | Impurity (% AUC) RRT 0.36 [2]: 1.51 % AUC | Impurity (% AUC) RRT 1.31 [2]: 0.18 % AUC | Impurity (% AUC) Total [2]: 2.13 % AUC
